# According to ChEMBL document CHEMBL1148353, “Development of potent bifunctional endomorphin-2 analogues with mixed mu-/delta-opioid agonist and delta-opioid antagonist properties” (J Med Chem, 2004):
# Where a SMILES comes first, the peptide text is derived from it. [ ]: non-standard residue; d: D form. The star is where a group is joined. Dmt = Cc1cc(O)cc(C)c1C[C@H](N)C(=O)O; NHPhenethyl = c1ccc(CCN*)cc1; NHBn = c1ccc(CN*)cc1; NHPh = c1ccc(N*)cc1; NHtBu = CC(C)(C)N*
# How the values were obtained:
# [1] = organism: Cavia porcellus; assay: In vitro inhibitory concentration against electrically induced twitches in guinea pig ileum; format: functional
# [2] = organism: Mus musculus; assay: In vitro inhibitory concentration against electrically induced twitches in mouse vas deferens; format: functional
# [3] = target: Delta-type opioid receptor (Rattus norvegicus, UniProt P33533); assay: Binding affinity against rat brain opioid receptor delta 1 using [3H]DPDPE radioligand
# Sequence of Delta-type opioid receptor (P33533 whole entry): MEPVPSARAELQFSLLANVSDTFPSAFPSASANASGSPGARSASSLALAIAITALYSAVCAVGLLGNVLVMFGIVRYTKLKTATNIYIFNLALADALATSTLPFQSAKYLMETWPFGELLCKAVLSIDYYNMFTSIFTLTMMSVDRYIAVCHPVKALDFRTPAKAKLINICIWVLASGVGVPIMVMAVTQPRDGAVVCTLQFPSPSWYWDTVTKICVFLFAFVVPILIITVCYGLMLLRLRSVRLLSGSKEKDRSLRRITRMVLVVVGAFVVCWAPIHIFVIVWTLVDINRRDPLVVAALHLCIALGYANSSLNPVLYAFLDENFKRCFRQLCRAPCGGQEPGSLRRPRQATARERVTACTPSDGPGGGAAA
# [4] = target: Opioid receptors; mu & delta (Rattus norvegicus) (UniProt P33533+P33535); assay: Ratio of binding affinity against rat brain delta opioid receptor to that of mu opioid receptor
# Sequence of Opioid receptors; mu & delta (Rattus norvegicus) (P33533 whole entry, looked up): as the sequence (P33533 whole entry) above
# Sequence of Opioid receptors; mu & delta (Rattus norvegicus) (P33535 whole entry, looked up): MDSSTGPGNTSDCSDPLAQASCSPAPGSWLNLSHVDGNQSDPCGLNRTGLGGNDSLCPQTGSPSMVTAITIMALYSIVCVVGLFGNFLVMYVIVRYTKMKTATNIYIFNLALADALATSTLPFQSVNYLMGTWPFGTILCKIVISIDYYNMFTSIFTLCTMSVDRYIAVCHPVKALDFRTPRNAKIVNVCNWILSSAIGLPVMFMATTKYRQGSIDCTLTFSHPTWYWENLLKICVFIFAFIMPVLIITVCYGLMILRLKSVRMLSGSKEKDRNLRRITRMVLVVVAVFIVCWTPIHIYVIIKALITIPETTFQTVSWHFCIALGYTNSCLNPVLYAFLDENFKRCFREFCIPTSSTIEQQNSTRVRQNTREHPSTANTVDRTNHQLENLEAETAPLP
# [5] = target: Mu-type opioid receptor (Rattus norvegicus, UniProt P33535); assay: Binding affinity against rat brain Opioid receptor mu 1 using [3H]DAMGO radioligand
# Sequence of Mu-type opioid receptor (P33535 whole entry): as the sequence (P33535 whole entry, looked up) above
Compound,IC50 [1] [nM],IC50 [2] [nM],Ki [3] [nM],Ratio [4],Ki [5] [nM]
Cc1cc(O)cc(C)c1C[C@H](N)C(=O)N1CCC[C@H]1C(=O)N[C@@H](Cc1ccccc1)C(=O)Nc1cccc2ccccc12,0.49,5.47,19.9,68,
Cc1cc(O)cc(C)c1C[C@H](N)C(=O)N1CCC[C@H]1C(=O)N[C@@H](Cc1ccccc1)C(=O)Nc1cccc2ncccc12,0.26,0.616,30,283,0.11
N[C@@H](Cc1ccc(O)cc1)C(=O)N1CCC[C@H]1C(=O)N[C@@H](Cc1ccccc1)C(=O)NCc1ccccc1 (H-Tyr-Pro-Phe-NHBn),,,1730,80,21.6
Cc1cc(O)cc(C)c1C[C@H](N)C(=O)N1CCC[C@H]1C(=O)N[C@@H](Cc1ccccc1)C(=O)Nc1cccc2cnccc12,0.94,> 10000,98.3,,0.19
Cc1cc(O)cc(C)c1C[C@H](N)C(=O)N1CCC[C@H]1C(=O)N[C@@H](Cc1ccccc1)C(=O)Nc1cccnc1,72.8,> 10000,288,,0.17
N[C@@H](Cc1ccc(O)cc1)C(=O)N1CCC[C@H]1C(=O)N[C@@H](Cc1ccccc1)C(=O)Nc1ccc2ncccc2c1,,,9880,136,72.9
N[C@@H](Cc1ccc(O)cc1)C(=O)N1CCC[C@H]1C(=O)N[C@@H](Cc1ccccc1)C(=O)NC12C[C@H]3C[C@@H](C1)C[C@@H](C2)C3,,,6260,265,23.6
N[C@@H](Cc1ccc(O)cc1)C(=O)N1CCC[C@H]1C(=O)N[C@@H](Cc1ccccc1)C(=O)Nc1cccc2cccnc12,,,17100,68,249
NC(=O)[C@H](Cc1ccccc1)NC(=O)[C@H](Cc1ccccc1)NC(=O)[C@@H]1CCCN1C(=O)[C@@H](N)Cc1ccc(O)cc1 [ENDOMORPHIN 2],5.79,344,,,
Cc1cc(O)cc(C)c1C[C@H](N)C(=O)N1CCC[C@H]1C(=O)N[C@@H](Cc1ccccc1)C(=O)Nc1ccccc1 (H-[Dmt]-Pro-Phe-NHPh),37.7,> 10000,20.6,,1.11
Cc1cc(O)cc(C)c1C[C@H](N)C(=O)N1CCC[C@H]1C(=O)N[C@@H](Cc1ccccc1)C(N)=O (H-[Dmt]-Pro-Phe-NH2),2.33,113,53.2,443,0.12
Cc1cc(O)cc(C)c1C[C@H](N)C(=O)N1CCC[C@H]1C(=O)N[C@@H](Cc1ccccc1)C(=O)Nc1cccc2cccnc12,445,2980,33.1,,0.49
NC(=O)[C@H](Cc1ccccc1)NC(=O)[C@@H]1CCCN1C(=O)[C@@H](N)Cc1ccc(O)cc1 (H-Tyr-Pro-Phe-NH2),,,15900,343,46.3
Cc1cc(O)cc(C)c1C[C@H](N)C(=O)N1CCC[C@H]1C(=O)N[C@@H](Cc1ccccc1)C(=O)Nc1cnc2ccccc2c1,9.14,> 10000,190,577,0.33
N[C@@H](Cc1ccc(O)cc1)C(=O)N1CCC[C@H]1C(=O)N[C@@H](Cc1ccccc1)C(=O)Nc1cnc2ccccc2c1,,,18600,333,55.8
N[C@@H](Cc1ccc(O)cc1)C(=O)N1CCC[C@H]1C(=O)N[C@@H](Cc1ccccc1)C(=O)NC1CCCCC1,,,8110,1400,5.79

Compound,IC50 [1] [nM],IC50 [2] [nM],Ki [3] [nM],Ratio [4],Ki [5] [nM]
N[C@@H](Cc1ccc(O)cc1)C(=O)N1CCC[C@H]1C(=O)N[C@@H](Cc1ccccc1)C(=O)Nc1ccncc1,,,25100,521,48.2
N[C@@H](Cc1ccc(O)cc1)C(=O)N1CCC[C@H]1C(=O)N[C@@H](Cc1ccccc1)C(=O)Nc1cccc2ccccc12,,,3640,1510,2.41
N[C@@H](Cc1ccc(O)cc1)C(=O)N1CCC[C@H]1C(=O)N[C@@H](Cc1ccccc1)C(=O)Nc1ccccc1 (H-Tyr-Pro-Phe-NHPh),,,23200,692,33.5
Cc1cc(O)cc(C)c1C[C@H](N)C(=O)N1CCC[C@H]1C(=O)N[C@@H](Cc1ccccc1)C(=O)Nc1ccncc1,11.8,10000,52.7,,0.36
N[C@@H](Cc1ccc(O)cc1)C(=O)N1CCC[C@H]1C(=O)N[C@@H](Cc1ccccc1)C(=O)Nc1cccc2cnccc12,,,3480,57,61.1
Cc1cc(O)cc(C)c1C[C@H](N)C(=O)N1CCC[C@H]1C(=O)N[C@@H](Cc1ccccc1)C(=O)NCc1ccccc1 (H-[Dmt]-Pro-Phe-NHBn),22,> 10000,13.8,,0.52
N[C@@H](Cc1ccc(O)cc1)C(=O)N1CCC[C@H]1C(=O)N[C@@H](Cc1ccccc1)C(=O)Nc1cccc2ncccc12,,,12700,3110,4.07
N[C@@H](Cc1ccc(O)cc1)C(=O)N1CCC[C@H]1C(=O)N[C@@H](Cc1ccccc1)C(=O)Nc1cccnc1,,,19400,400,48.5
N[C@@H](Cc1ccc(O)cc1)C(=O)N1CCC[C@H]1C(=O)N[C@@H](Cc1ccccc1)C(=O)NC1C2C[C@H]3C[C@@H](C2)C[C@@H]1C3 (some centres undefined),,,5560,844,6.59
N[C@@H](Cc1ccc(O)cc1)C(=O)N1CCC[C@H]1C(=O)N[C@@H](Cc1ccccc1)C(=O)Nc1ccccn1,,,19700,742,26.5
CC(C)(C)NC(=O)[C@H](Cc1ccccc1)NC(=O)[C@@H]1CCCN1C(=O)[C@@H](N)Cc1ccc(O)cc1 (H-Tyr-Pro-Phe-NHtBu),,,13300,680,19.6
N[C@@H](Cc1ccc(O)cc1)C(=O)N1CCC[C@H]1C(=O)N[C@@H](Cc1ccccc1)C(=O)NCCc1ccccc1 (H-Tyr-Pro-Phe-NHPhenethyl),,,4310,324,13.3
Cc1cc(O)cc(C)c1C[C@H](N)C(=O)N1CCC[C@H]1C(=O)N[C@@H](Cc1ccccc1)C(=O)Nc1ccccn1,15,> 10000,157,,0.13
Cc1cc(O)cc(C)c1C[C@H](N)C(=O)N1CCC[C@H]1C(=O)N[C@@H](Cc1ccccc1)C(=O)N[C@@H](Cc1ccccc1)C(N)=O,0.07,1.87,28.2,188,0.15
Cc1cc(O)cc(C)c1C[C@H](N)C(=O)N1CCC[C@H]1C(=O)N[C@@H](Cc1ccccc1)C(=O)Nc1ccc2ncccc2c1,6.21,> 10000,46.6,,0.22
Cc1cc(O)cc(C)c1C[C@H](N)C(=O)N1CCC[C@H]1C(=O)N[C@@H](Cc1ccccc1)C(=O)NCCc1ccccc1 (H-[Dmt]-Pro-Phe-NHPhenethyl),5.03,> 10000,18,35,0.51
